In US11505553B2, “2-(Het)aryl-substituted fused heterocycle derivatives as pesticides” (Bayer Aktiengesellschaft, priority 2017, dated 2022):
Where two headings read alike, the source gives them in different places.

Key:
Format in all cases: in vivo
Myzus persicae [1] = assay: Myzus persicae spray test (MYZUPE), contrastive examples; conditions: 120 h, 5 dat, read-out: % efficacy
Protocol: Solvent: 78.0 parts by weight of acetone • • 1.5 parts by weight of dimethylformamide Emulsifier: alkylaryl polyglycol ether To produce a suitable active ingredient formulation, 1 part by weight of active ingredient is dissolved with the specified parts by weight of solvent and made up to the desired concentration with water containing an emulsifier concentration of 1000 ppm. To produce further test concentrations, the formulation is diluted with emulsifier-containing water. Discs of chinese cabbage leaves (Brassica pekinensis) infested by all stages of the green peach aphid (Myzus persicae) are sprayed with an active ingredient formulation of the desired concentration. After the desired time, the efficacy in % is determined. 100% means that all aphids have been killed; 0% means that no aphids have been killed.

Myzus persicae [2] = assay: Myzus persicae drench test (MYZUPE D); conditions: soil, 240 h, 10 dat, read-out: % efficacy
Protocol: Solvent: 7 parts by weight of dimethylformamide Emulsifier: 2 parts by weight of alkylaryl polyglycol ether To produce an appropriate active ingredient formulation, 1 part by weight of active ingredient is mixed with the stated amounts of solvent and emulsifier, and the concentrate is diluted with water to the desired concentration, it being necessary to take into account soil volume into which drenching is effected. It should be ensured that a concentration of 40 ppm of emulsifier in the soil is not exceeded. For production of further test concentrations, the mixture is diluted with water. Savoy cabbage plants (Brassica oleracea) in earth pots, infested by all stages of the green peach aphid (Myzus persicae), are drenched with an active ingredient formulation of the desired concentration. After the desired time, the efficacy in % is determined. 100% means that all aphids have been killed; 0% means that no aphids have been killed.

Nezara viridula = Nezara viridula spray test (NEZARA); conditions: 96 h, NEZAVI, 4 dat, read-out: % efficacy
Protocol: Solvent: 52.5 parts by weight of acetone • 7 parts by weight of dimethylformamide Emulsifier: alkylaryl polyglycol ether To produce an appropriate active ingredient formulation, 1 part by weight of active ingredient is dissolved with the stated parts by weight of solvent and made up with water containing an emulsifier concentration of 1000 ppm until the desired concentration is attained. For production of further test concentrations, the mixture is diluted with emulsifier-containing water. If addition of ammonium salts or/and penetrants is required, these are each added to the preparation solution in a concentration of 1000 ppm. Barley plants (Hordeum vulgare) infested with larvae of the southern green shield bug (Nezara viridula) are sprayed with an active ingredient formulation of the desired concentration. After the desired time, the efficacy in % is determined. 100% means that all bugs have been killed; 0% means that no bugs have been killed.

Aphis gossypii = Aphis gossypii spray test (APHIGO); conditions: 144 h, 6 dat, read-out: % efficacy
Protocol: Solvent: 14 parts by weight of dimethylformamide Emulsifier: alkylaryl polyglycol ether To produce an appropriate active ingredient formulation, 1 part by weight of active ingredient is dissolved with the stated parts by weight of solvent and made up with water containing an emulsifier concentration of 1000 ppm until the desired concentration is attained. For production of further test concentrations, the mixture is diluted with emulsifier-containing water. If addition of ammonium salts or/and penetrants is required, these are each added to the preparation solution in a concentration of 1000 ppm. Cotton plants (Gossypium hirsutum) severely infested by the cotton aphid (Aphis gossypii) are sprayed with an active ingredient formulation of the desired concentration. After the desired time, the kill in % is determined. 100% means that all aphids have been killed; 0% means that no aphids have been killed.

Tetranychus urticae = Tetranychus urticae spray test; OP-resistant (TETRUR), contrastive examples; conditions: 144 h, 6 dat, read-out: % efficacy
Protocol: Solvent: 78.0 parts by weight of acetone • • 1.5 parts by weight of dimethylformamide Emulsifier: alkylaryl polyglycol ether To produce an appropriate active ingredient formulation, 1 part by weight of active ingredient is dissolved with the stated parts by weight of solvent and made up with water containing an emulsifier concentration of 1000 ppm until the desired concentration is attained. For production of further test concentrations, the mixture is diluted with emulsifier-containing water. Discs of bean leaves (Phaseolus vulgaris) infested by all stages of the common spider mite (Tetranychus urticae) are sprayed with an active ingredient formulation of the desired concentration. After the desired time, the efficacy in % is determined. 100% means that all spider mites have been killed; 0% means that no spider mites have been killed.

Nilaparvata lugens [3] = assay: Nilaparvata lugens test (NILALU S); conditions: read-out: % efficacy
Protocol: Solvent: 14 parts by weight of dimethylformamide Emulsifier: 2 parts by weight of alkylaryl polyglycol ether To produce an appropriate active ingredient formulation, 1 part by weight of active ingredient is dissolved with the stated parts by weight of solvent and emulsifier and made up with water until the desired concentration is attained. For production of further test concentrations, the mixture is diluted with water. If addition of ammonium salts or/and penetrants (rapeseed oil methyl ester) is required, these are each pipetted into the finished preparation solution in a concentration of 1000 ppm after the dilution. Rice plants (Oryza sativa, var. Balilla) are treated by spraying with the active ingredient formulation in the desired concentration and then populated with L3 larvae of the brown planthopper (Nilaparvata lugens). After the desired time, the kill in % is determined. 100% means that all planthoppers have been killed and 0%, means that no planthoppers have been killed.

Nilaparvata lugens [4] = assay: Nilaparvata lugens spray test (NILALU); conditions: 96 h, 4 dat, read-out: % efficacy
Protocol: Solvent: 52.5 parts by weight of acetone • 7 parts by weight of dimethylformamide
Emulsifier: alkylaryl polyglycol ether
To produce an appropriate active ingredient formulation, 1 part by weight of active ingredient is dissolved with the stated parts by weight of solvent and made up with water containing an emulsifier concentration of 1000 ppm until the desired concentration is attained. For production of further test concentrations, the mixture is diluted with emulsifier-containing water. If addition of ammonium salts or/and penetrants is required, these are each added to the preparation solution in a concentration of 1000 ppm.
Rice plants (Oryza sativa) are sprayed with an active ingredient formulation of the desired concentration and then populated with larvae of the rice cicada (Nilaparvata lugens).
After the desired time, the efficacy in % is determined. 100% means that all rice cicadas have been killed; 0% means that no rice cicadas have been killed.

CCNC(=O)Nc1ccc(S(=O)(=O)CC)c(-c2nc3cc(C(F)(F)C(F)(F)F)nnc3n2C)n1 [Comparison, reference compound]
Emax at 4 g/ha (Myzus persicae [1]): 0%
Emax at 0.8 ppm (Myzus persicae [2]): 0%
Emax at 0.8 g/ha (Nezara viridula): 0%
Emax at 4 ppm (Aphis gossypii): 15%
Emax at 100 g/ha (Tetranychus urticae): 0%
Emax at 0.8 ppm (Nilaparvata lugens [3]; 168 h, 7 dat): 5%
Emax at 0.8 ppm (Nilaparvata lugens [3]; 336 h, 14 dat): 20%
Emax at 4 g/ha (Nilaparvata lugens [4]): 0%
